Test results: publication PMC7407621, “Enhancing a de novo enzyme activity by computationally-focused ultra-low-throughput screening” (Chemical Science, 2020)

Tested on: GNCA4-WT (GNCA4-W229D/F290W)
Settings: pH 7, 25 °C, 100 mM NaCl, 5% acetonitrile, His-tag

In the case of `O=[N+]([O-])c1ccc2oncc2c1` [5-nitrobenzisoxazole], the Km is reported as 3.7 ± 0.8 mM.
